Earlier results as cited in US20260191871A1, “USE OF ANTIVIRAL AGENTS, COMPOSITION OF MATTER, COMBINATION PREPARATIONS/AGENTS TO TREAT CHRONIC DISEASES ASSOCIATED WITH EPSTEIN-BARR VIRUS AND OTHER HUMAN HERPES VIRUSES” (EPIPHANY BIOSCIENCES, priority 2022, published 2026).

Assays:
[1] = human, multiple dosing, total daily doses of up to 6.0 g
zoster = settings: suspension at 250, 500 and 750 mg twice daily for 7 days, zoster patients, acyclovir as control
[2] = tested on: human varicella zoster virus (VZV)
[3] = tested on: human herpesvirus-6 (HHV-6)
[4] = compared with the other polymorphic forms (O'Neill et al. '456)

Compound: CCCCCCCCCCCCCCCCCC(=O)OC[C@H](CCOC(=O)[C@@H](N)C(C)C)Cn1cnc2c(=O)nc(N)[nH]c21 [valomaciclovir stearate, [(2R)-4-[(2S)-2-amino-3-methylbutanoyl]oxy-2-[(2-amino-6-oxo-3H-purin-9-yl)methyl]butyl]octadecanoate]
- safety and tolerability [1]: safe and well tolerated
- zoster lesion healing (zoster): proof-of-concept for zoster lesion healing
- replication of EBV (EBV): suppresses replication of EBV
- impact on CMV (CMV): does not impact CMV

Compound: Nc1nc2c(ncn2C[C@H](CO)CCO)c(=O)[nH]1 [Formula H2G]
- activity against human varicella zoster virus (VZV) [2]: potent activity
- activity against Epstein-Barr virus (EBV) (Epstein-Barr virus (EBV)): potent activity
- activity against human herpesvirus-6 (HHV-6) [3]: potent activity
- activity against HSV-1 (HSV-1): potent activity
- activity against HSV-2 (HSV-2): potent activity

Compound: CCCCCCCCCCCCCCCCCC(=O)OC[C@H](CCOC(=O)[C@@H](N)C(C)C)Cn1cnc2c(=O)[nH]c(N)nc21 [Polymorph A]
- thermodynamic stability among polymorphs of valomaciclovir stearate [4]: thermodynamically the most stable polymorph
